Laboratory results taken from patent US20060099170A1, “Compositions for inducing increased levels of beta-chemokines and methods of use therefor” (priority 2002, published 2006).
Like-named read-outs stand apart in the source and are kept apart here.

Tests used:
activated PBMCs [1] = test: β-chemokine levels (ELISA) in supernatants of activated PBMCs cultured with cell cycle arresting compounds; assay type: cell-based, human
activated PBMCs [2] = test: Cell number / proliferation of activated PBMCs (trypan blue); assay type: cell-based, human
Method: (§1) Cell proliferation was measured by the trypan blue staining viability test, [^3H]thymidine incorporation in DNA, and the 3-(4,5-dimethylthiazol-2-yl)-2,5-diphenyl tetrazolium bromide (MTT) assay (Roche).
To this end, β-chemokine levels (production or availability) by activated PBMCs cultured in the presence of HU was investigated. HU is a G1 cytostatic drug that, by depleting intracellular nucleotide pools, arrests cell cycle progression in late G1 (Lori, et al., 1994). […] In the representative experiment depicted in FIG. 2, day 8 chemokine levels in cultures containing 100 μM HU were increased 3.4-fold for RANTES, 5.4-fold for MIP-1α, and 4-fold for MIP-1β compared with the untreated control. Because HU inhibits lymphocyte proliferation, chemokine values also were expressed as chemokine amount per viable cell. As expected, cell numbers were lower in the presence of the drug (FIG. 2C).
The agents evaluated were SB, APH, RC, and OL. SB and APH arrest the cell cycle in early and late G1, respectively (Korin, et al., 1998; Koostra, et al., 2000). RC and OL are purine-derivative drugs that arrest cell cycle progression in late G1 through inhibition of cyclin-dependent kinases (CDKs) (Gray, et al., 1999). […] The number of viable cells and chemokine levels are depicted. […]

CD8 lymphocytes [3] = test: β-chemokine levels (ELISA) in cultures of purified activated CD8 lymphocytes; assay type: cell-based, human
CD8 lymphocytes [4] = assay type: cell-based, human
Method: as §1
The impact of cell cycle arrest in β-chemokine levels was evaluated by measuring chemokine levels in supernatants of cell cultures containing compounds known to cause cell cycle arrest. Levels of the β-chemokines RANTES, MIP-1α, and MIP-1β were measured by using commercial ELISA kits (R &D Systems). Cell cycle arrest in G1 was induced by culturing of the cells in the presence of aphidicolin (APH), sodium butyrate (SB), hydroxyurea (HU), roscovitine (RC), or olomoucine (OL). Arrest in late S phase was induced by culture of cells in the presence of resveratrol. G2 cycle arrest was induced by the compounds nocodazole and Colcemid. All compounds were purchased from Sigma except RC and OL, which were from Calbiochem. Arrest of cell cycle progression in the presence of G1 cytostatic agents was measured by propidium iodide staining followed by fluorescence-activated cell sorter (FACS) analysis (Noguchi, et al., 1991). This method may be used to test any compound for ability to arrest the G1 phase in a cell cycle.
In the experiments described thus far, total PBMCs had been used. […] Negatively selected CD8^+ lymphocytes were activated by anti-CD3 plus IL-2 treatment for 3 days. Activated cells were cultured in the presence of IL-2 and HU (100 and 200 μM) for 24 or 48 h, time points at which cell proliferation and supernatant chemokine levels were assayed. Cell proliferation was determined by trypan blue staining, [^3H]thymidine incorporation in DNA, and percentage of cells in S phase as assessed by propidium iodide staining (FIG. 4). […] Similarly, the percentage of cells in S phase increased in the absence of HU, whereas it decreased in its presence. […]
To investigate whether increased levels of supernatant chemokines upon cell cycle arrest are cell cycle phase-specific, the effect of G2 arrest in chemokine production next was evaluated. […]

HIV-1 BaL = test: HIV-1-suppressive activity of supernatants from HU-treated PBMCs, infected PBMCs, p24; assay type: cell-based; details: 100 μM HU in fresh medium, day 7 after infection
Method: The antiviral activity of the supernatants collected from cultures of PBMCs that had been exposed to 100 μM HU for 7 days [supernatants referred to as conditioned medium (CM)] was evaluated in PBMCs infected with HIV-1 BaL and HIV-1 IIIb. Briefly, PHA-activated PBMCs were infected with each virus at 100 tissue culture 50% infective dose units (TCID50)/10^6 PBMCs or 10 TCID50/10^6 PBMCs for 2 h at 37° C. Infected cells were cultured in IL-2 medium alone, IL-2 medium with 100 μM HU, IL-2 medium containing 50% supernatant from HU-treated PBMCs (CM/HU), or IL-2 medium containing 50% supernatant from control-treated PBMCs (CM/control). On day 3 after infection, culture medium was replaced with fresh medium of the same kind as on day 1. Viral growth (measured by p24 levels in the supernatant) and cell viability (assayed by MTT) were determined on day 7 after infection.
These culture supernatants were referred to as CM/HU. Culture supernatants from activated PBMCs cultured under the same conditions in the absence of HU (CM/control) also were harvested.
The antiviral activity of the CM was evaluated in the infection of PBMCs with HIV-1 BaL (a prototype R5-using virus) and HIV-1 IIIb (a prototype X4-using virus). […] Virus replication and cell viability were measured on day 7 after infection.

HIV = test: Cyclic therapy trial with HU during off-ARV periods: viral load; assay type: in vivo; details: for Viral load: 7 days on ARV's alternated by 14 days off ARV's but on HU
Text: (§2) The protocol used in the present invention expands on the NIH's concept of Cyclic Therapy. Cyclic therapy is a strategy in which patients can maintain viral suppression despite alternating between 7 days of taking ARV medications and 7 days of taking no medications. Compared to the NIH trail of short cycle of 7 days intermittently off therapy, in our trial, the G1 cycle agent HU is being used to maintain viral suppression during an extended off medication cycle of 14-28 days. The off period is followed by 7 days of combination antiretroviral therapy. This has allowed study participants to be on ⅔ fewer medications but still maintain viral control and immune reconstitution.
(§3) Four patients are enrolled in the trial. Patients in this study have benefited from decreased drug related toxicities, relief from difficult financial sacrifices to stay on ARV's, and improved adherence to medications.

CD4 = test: Cyclic therapy trial with HU during off-ARV periods: absolute CD4 count; assay type: in vivo, human; details: 7 days on ARV's alternated by 14 days off ARV's but on HU
Text: as §2, §3

HIV-1 ADA = test: Antiviral activity of TAK-779 with or without RAPA in PBMCs (p24); assay type: cell-based
Method: For infection of PBMCs, fresh donor PBMCs were cultured for 7 days in medium containing IL-2. On day 7, cells were exposed to the virus for 3 h. Nonadsorbed virus was removed by washing cells with PBS three times. Infected cells were cultured in IL-2 medium. Infection of MDMs was carried out as described before (Pemo, et al. 1993). Unless otherwise indicated, PBMCs were infected by using a moi of 0.001, and monocyte-derived macrophages (MDMs) were infected by using a moi of 0.002. Virus growth was monitored in culture supernatants by measuring p24 antigen levels by ELISA (NEN) or by measuring viral RT activity in an RT assay (Willey, et al., 1988).
To test this hypothesis, donor PBMCs were cultured in IL-2 medium in the absence or presence of RAPA (1, 10, and 100 nM). […] Infected cells were cultured in the presence of RAPA (same concentration as during pretreatment) plus 0.1 nM TAK-779. Virus production was determined 7 days after infection (FIG. 11).

[5] = 100 μM HU, day 8, levels as ng/ml
[6] = at G1 cytostatic concentrations of the drug, PHA-activated PBMCs

C[C@@]1(CO)[C@H](O)CC[C@@]2(C)[C@H]1CC[C@H]1C[C@@H]3C[C@@]12CC[C@]3(O)CO [APH, aphidicolin]
chemokine values (activated PBMCs [1]; 0.5 μM APH, PHA-activated PBMCs): Increased chemokine values | cell proliferation (activated PBMCs [2]; 0.5 μM APH): reduced cell proliferation

CN[C@H]1CCc2cc(OC)c(OC)c(OC)c2-c2ccc(OC)c(=O)cc21 [Colcemid]
chemokine content on G2 cycle arrest (CD8 lymphocytes [3]; same as nocodazole (lower than untreated), data not shown): same results

NC(=O)NO [HU, hydroxyurea]
chemokine levels (activated PBMCs [1]): increased chemokine levels | MIP-1α level increase compared with untreated control (activated PBMCs [1]; [5]): 5.4 fold | MIP-1β level increase compared with untreated control (activated PBMCs [1]; [5]): 4 fold | RANTES level increase compared with untreated control (activated PBMCs [1]; [5]): 3.4 fold | MIP-1α level increase, ng per 10^6 cells (activated PBMCs [1]; 100 μM HU, per viable cell): 25.4 fold | MIP-1β level increase, ng per 10^6 cells (activated PBMCs [1]; 100 μM HU, per viable cell): 18.4 fold | RANTES level increase, ng per 10^6 cells (activated PBMCs [1]; 100 μM HU, per viable cell): 16.2 fold | concentrations (ng/ml) of RANTES, MIP-1α, and MIP-1β in the culture supernatants (activated PBMCs [1]; PHA-activated PBMCs, HU for 14 days, dose-dependent): increased concentrations | cell numbers (activated PBMCs [2]; PHA-activated PBMCs in presence of HU, trypan blue): lower | MIP-1α level increase (CD8 lymphocytes [3]; 100 μM HU, 48 h): 3.7 fold | MIP-1β level increase (CD8 lymphocytes [3]; 100 μM HU, 48 h): 4.7 fold | RANTES level increase (CD8 lymphocytes [3]; 100 μM HU, 48 h): 1.9 fold | chemokine production levels (CD8 lymphocytes [3]; 200 μM HU, 48 h, compared with 100 μM): Slightly lower increases | percentage of cells in S phase (CD8 lymphocytes [4]; HU 100 and 200 μM, propidium iodide): decreased | cell number and thymidine incorporation between 24 and 48 h (CD8 lymphocytes [4]; HU 100 and 200 μM, doubled in absence of HU): remained constant or decreased | inhibition of HIV-1 BaL replication (HIV-1 BaL): < 10% | inhibition at 100 µM (HIV-1 BaL; Human immunodeficiency virus 1, BAL, PBMC, 168 h, read-out: inhibition of HIV-1 BaL replication): 8% | Viral load (HIV; Patient 1, 6 wks): 72 Copies/ml | Viral load (HIV; Patient 1, 9 wks): 158 Copies/ml | Viral load (HIV; Patient 1, 12 wks): 114 Copies/ml | Viral load (HIV; Patient 1, 18 wks): 973 Copies/ml | Viral load (HIV; Patient 1, column head 3 wks off continuous therapy): 0 Copies/ml | Viral load (HIV; Patient 1, column head 15 wks): 322 Copies/ml | Viral load (HIV; Patient 1, column head 21 wks): 0 Copies/ml | Viral load (HIV; Patient 2, 3 wks): 0 c/ml | Viral load (HIV; Patient 2, 6 wks): 0 c/ml | Viral load (HIV; Patient 2, 9 wks): 0 c/ml | Viral load (HIV; Patient 2, 12 wks): 0 c/ml | Viral load (HIV; Patient 2, 18 wks): 0 c/ml | Viral load (HIV; Patient 2, column head 15 wks): 0 c/ml | Viral load (HIV; Patient 3, 3 wks): 0 c/ml | Viral load (HIV; Patient 3, 6 wks): 0 c/ml | Viral load (HIV; Patient 3, 9 wks): 0 c/ml | Viral load (HIV; Patient 3, 12 wks): 0 c/ml | viral suppression despite discontinuation of primary anti-retroviral drugs (HIV; all three patients, at least 3 cycles of treatment): persistent viral suppression | Absolute CD4 count (CD4; Patient 1, 3 wks): 377 | Absolute CD4 count (CD4; Patient 1, column head 21 wks): 518 | Absolute CD4 count (CD4; Patient 2, 3 wks): 1256 | Absolute CD4 count (CD4; Patient 2, 18 wks): 973 | Absolute CD4 count (CD4; Patient 3, 3 wks): 934 | Absolute CD4 count (CD4; Patient 3, 12 wks): 995

CC[C@H](CO)Nc1nc(NCc2ccccc2)c2ncn(C(C)C)c2n1 [RC, roscovitine]
chemokine levels (activated PBMCs [1]; [6]): increased chemokine levels

CCCC(=O)[O-].[Na+] [SB, sodium butyrate]
chemokine levels (activated PBMCs [1]; [6]): increased chemokine levels

Cc1ccc(-c2ccc3c(c2)C=C(C(=O)Nc2ccc(C[N+](C)(C)C4CCOCC4)cc2)CCC3)cc1.[Cl-] [TAK-779]
inhibition of virus replication (HIV-1 ADA; 0.1 nM TAK-779, absence of RAPA, day 7): 21% | virus inhibition due to TAK-779 (HIV-1 ADA; 0.1 nM TAK-779 in presence of 1 nM RAPA): 74.5% | virus inhibition due to TAK-779 (HIV-1 ADA; 0.1 nM TAK-779 in presence of 10 nM RAPA): 89% | virus inhibition due to TAK-779 (HIV-1 ADA; 0.1 nM TAK-779 in presence of 100 nM RAPA): 96%

COC(=O)Nc1nc2ccc(C(=O)c3cccs3)cc2[nH]1 [nocodazole]
chemokine content (CD8 lymphocytes [3]; 0.01 μg/ml nocodazole, 48 h, G2 arrest): lower than in the untreated controls | cell cycle distribution (CD8 lymphocytes [4]; 0.01 μg/ml nocodazole, 48 h): accumulation of cells in G2

Oc1ccc(C=Cc2cc(O)cc(O)c2)cc1 [resveratrol]
chemokine levels on cell cycle arrest in late S (CD8 lymphocytes [3]; 10 μM resveratrol, data not shown): lower than the untreated control
